# Source: patent publication US9682993B2, “Anticancer compounds” (ST. JUDE CHILDREN'S RESEARCH HOSPITAL, priority 2012, dated 2017)
# Like-named read-outs stand apart in the source and are kept apart here.
# What was measured:
# [1] = test system: SK-MEL-2; assay: Drug combination assay, SK-MEL-2; format: cell-based; details: for CI in SK-MEL-2 with compound 19: Combination Index at ED50, CalcuSyn 2.1, listed drug + compound 19
# Method: (§1) Preliminary cytotoxic screenings for each drug used in drug combination assays were performed to determine their cytotoxic dose range. […] Eight concentrations were established by 1:3 serial dilutions of the single drugs and their combinations with the splicing modulators. All drug concentrations were evaluated in triplicate in 96-well cell culture plates. Assays of individual drugs and drug combinations were run on the same tissue culture plate. Cell viability was determined using the CellTiter-Glo reagent.
# (§2) Luminescence data obtained from the cell viability determinations were formatted per the requirements of the analytical software (viability data range: >0 and <1). The formatted data were analyzed with the software CalcuSyn 2.1 (Biosoft, Cambridge, UK), which provides quantitative CI values for the drug interaction analyses (see ranges in Supplementary Table S2).
# [2] = test system: JeKo1; assay: In vitro cytotoxicity analysis, JeKo1; format: cell-based; details: Homo sapiens, JeKo-1
# Description: The A549 lung cancer, WiDr colorectal cancer, MCF-7 breast cancer, PC-3 prostate cancer, and OVCAR-3 ovarian cancer cell lines were purchased from the American Type Culture Collection (ATCC, Manassas, Va.) and were maintained in growth media as recommended by the ATCC. The JeKo-1 and JVM-2 mantle cell lymphoma cell lines were purchased from the DSMZ (Brunswick, Germany) and were maintained in growth media as recommended by the vendor. The pediatric rhabdomyosarcoma Rh18 cell line was provided y Dr. P. Houghton (Ohio State University—Nationwide Children's Hospital, Columbus, Ohio) and were maintained in growth media as recommended by Dr. Houghton. All cell culture media were supplemented with L-glutamine and penicillin/streptomycin. All cells were grown under standard culture conditions in CO2 incubators, at 37° C., with 5% CO2, and 100% relative humidity.
# Cell viabilities were determined by measuring the cleavage of (sodium 3′-[1-(phenylaminocarbonyl)-3,4-tetrazolium]-bis(4-methoxy-6-nitro)benzene sulfonic acid hydrate) (XTT) to a water-soluble orange formazan by mitochondrial dehydrogenase, following the manufacturer's instructions (Roche Applied Science, Indianapolis, Ind.). Briefly, cell lines were seeded at various cell densities depending on the cell type. The adherent cell lines were allowed to adhere overnight before compound addition, whereas the suspension cell lines were seeded the day of compound addition. Stock concentrations of the compounds were made in DMSO, diluted in culture media and subsequently added to the plates at various final concentrations, then incubated for 72 hours. After the incubation period, the XTT labeling reagent, containing the electron-coupling reagent, was added to each well and incubated for 4 hours. The absorbance of each well was then read at 490 nm with a reference wavelength of 690 nm using a VersaMax™ microplate reader (Sunnyvale, Calif.). Data are expressed as the percentage of growth compared to vehicle-treated cells, as calculated from absorbance and corrected for background absorbance.
# Alternatively, cell lines were seeded in 100 μL cell culture medium in 96-well plates. Depending on the cell proliferation rate, cells were seeded at 4,000 to 6,000 cells/well. Suspension cell cultures were initiated with 20,000 cells/well. The cells were incubated overnight at 37° C., and then the drug treatments were started by adding 50 μL medium containing the corresponding drug dilution and DMSO. The final concentration of DMSO onto the cells was 0.5% v/v in all wells. The cells viability was determined using the CellTiter-Glo Luminescent Cell Viability Assay (Promega, Madison, Wis.). The CellTiter-Glo reagent was prepared according to the manufacturer's instructions, and then 50 μL reagent was added to each well for 1 h at rt. The luminescence was measured on an Envision Multilabel Plate Reader (PerkinElmer, Waltham, Mass.). The IC50 values were calculated from the dose-response curve analysis with GraphPad Prism 6.01 (GraphPad Software, La Jolla, Calif.) using the nonlinear regression model 4 Parameter Logistic. Nine concentrations were generated by 1:2 serial dilutions for each IC50 assay. Each drug concentration was evaluated in triplicate or quadruplicate.
# [3] = test system: MDM2 alternative splicing in Rh18 cells; assay: In vitro alternative splicing assay (MDM2, RT-PCR); format: cell-based; details: Rh18 cells, 8 h exposure; Table II
# Method: Briefly, following an 8 h exposure of exponentially growing cells to drug, total RNA was isolated using TRIzol reagent (Invitrogen, Carlsbad, Calif.). Total RNA (1 μg) was used to convert the mRNA to cDNA by using random primers, Oligo(dT)16 and Omniscript Reverse Transcription Kit (Qiagen, Germantown, Md.). PCR analyses were performed using specific oligonucleotides (see Table I) and standard amplification protocols. PCR products were separated by agarose gel electrophoresis, visualized by ethidium bromide staining on an UV transilluminator, and recorded. PCR band sizes were calculated by comparing them to the standard EZ Load 100-bp PCR Molecular Ruler (BioRad Laboratories, Hercules, Calif.).
# [4] = test system: cytotoxicity or splicing modulation; assay: Rapid onset of cytotoxicity or splicing modulation; format: cell-based; details: maximum cytotoxicity or splicing modulation within 5 hours of drug treatment
# Method: The cell were seeded in of 100 μl of medium into 96-well plates (HeLa at 4×10^4 cell/well; SK_MEL_2 at 6×10^4 cell/well), they were allowed to attach overnight, and then treatments started by adding 50 μl of medium containing Sudemycin D6 to produce a final concentration of 1 μM and DMSO to 0.5% v/v final into the experimental well. Continuous drug treatments were run in the same plate, using concentrations of 0, 62.5, 125, 250, 500 & 1000 nM final. DMSO was added into all wells, including non-treated wells to 0.5% v/v final concentration. For wells where the drug was withdrawn, the medium was carefully aspirated after 1, 2, 3 and 4 hours after the addition of the drug, the cells were washed once with PBS and then 150 μl of fresh cell culture medium containing 0.5% v/v DMSO was added into all washed out wells. After 72 hours of the addition of drug, the cell viability was determined using CellTiter-Glo luminescent cell viability assay (Promega, Madison, Wis.), and Sudemycin D6 cytotoxicity was calculated as the percentage of cell proliferation inhibition against the control treatment DMSO.
# [5] = Solubility in phosphate buffered saline (HPLC); format: physicochemical
# [6] = Mouse plasma stability (HPLC); format: in vitro ADME; details: mouse plasma at 37° C.
# [7] = test system: cell lines investigated; assay: Drug combination assays, cell line not stated; format: cell-based
# Method: as §1, §2
# [8] = test system: Sk-N-AS; assay: Drug combination assay, Sk-N-AS neuroblastoma; format: cell-based; details: neuroblastoma cell line SK-NA-S; CalcuSyn 2.1
# Method: as §1, §2
# [9] = listed drug combined with compound 19, Ineffective = drug IC50 much higher than 1 μM
structure (smiles),measurement,setting,value
C/C(=C\C(=O)Nc1ccccc1C(=O)O)c1ccc2ccccc2c1 [BIBR 1532],Interaction Type,[1],Ineffective
COc1cc([C@@H]2c3cc4c(cc3[C@@H](O[C@@H]3O[C@@H]5CO[C@@H](C)O[C@H]5[C@H](O)[C@H]3O)[C@H]3COC(=O)[C@H]23)OCO4)cc(OC)c1O [Etoposide],Interaction Type,[1],Ineffective
CC(/C=C/[C@@H]1C[C@]2(CO2)CC(C)(C)O1)=C\C[C@H]1OC[C@@H](NC(=O)/C=C\[C@H](C)OC(=O)N(C)C(C)(C)C)CO1,IC50,[2]; Table III,780 nM
CC(/C=C/[C@@H]1C[C@]2(CO2)CC(C)(C)O1)=C\C[C@H]1CC[C@@H](NC(=O)/C=C\[C@H](C)OC(=O)C(C)C)CC1,IC50,[2]; Table II,47 nM
same,MDM2 Splicing Effects,[3],Yes
same,Rapid Onset,[4],Yes (“Yes” indicates maximum cytotoxicity or splicing modulation is seen within 5 hours of drug treatment.)
same,Buffer Soluble,[5],No
same,Plasma Stability,[6],No
CC(/C=C/[C@@H]1C[C@]2(CO2)CC(C)(C)O1)=C\C[C@H]1OC[C@@H](NC(=O)/C=C\[C@H](C)OC(=O)NC(C)(C)C)CO1,IC50,[2]; Table III,> 1000 nM
CC(=O)O[C@H]1C(=O)[C@@]2(C)[C@H]([C@H](OC(=O)c3ccccc3)[C@]3(O)C[C@H](OC(=O)[C@H](O)[C@@H](NC(=O)c4ccccc4)c4ccccc4)C(C)=C1C3(C)C)[C@]1(OC(C)=O)CO[C@@H]1C[C@@H]2O [Taxol],Interaction Type,[1]; [9],Antagonism (1.45-3.3)
O=C(O)c1nn(Cc2ccc(Cl)cc2Cl)c2ccccc12 [Lonidamine],Interaction Type,[1]; [9],Ineffective
COC(=O)C[C@](O)(CCC(C)(C)O)C(=O)O[C@@H]1C(OC)=C[C@]23CCCN2CCc2cc4c(cc2[C@H]13)OCO4 [Harringtonine],Interaction Type,[1]; [9],Antagonism (1.45-3.3)
CNC(=O)c1cc(Oc2ccc(NC(=O)Nc3ccc(Cl)c(C(F)(F)F)c3)cc2)ccn1 [Sorafenib],CI in SK-MEL-2 with compound 19,[1],0.43
same,drug interaction with compound 19 (panel of 23 drugs),[7],second strongest synergistic agent
same,drug interaction with compound 19,[8],predominantly synergistic
CC(/C=C/[C@@H]1C[C@]2(CO2)CC(C)(C)O1)=C\C[C@H]1CC[C@@H](NC(=O)/C=C\[C@H](C)OC(N)=O)CC1,IC50,[2]; Table II,100 nM
Cc1ccc(NC(=O)c2ccc(CN3CCN(C)CC3)cc2)cc1Nc1nccc(-c2cccnc2)n1 [Imatinib],Interaction Type,[1]; [9],Antagonism (1.45-3.3)
CCCCN(C)C(=O)O[C@@H](C)/C=C\C(=O)N[C@H]1CO[C@@H](C/C=C(C)/C=C/[C@@H]2C[C@]3(CO3)CC(C)(C)O2)OC1,IC50,[2]; Table III,690 nM
CCCN(C)C(=O)O[C@@H](C)/C=C\C(=O)N[C@H]1CO[C@@H](C/C=C(C)/C=C/[C@@H]2C[C@]3(CO3)CC(C)(C)O2)OC1,IC50,[2]; Table III,610 nM
Cc1[nH]c2ccccc2c1CCNCc1ccc(/C=C/C(=O)NO)cc1 [Panobinostat],CI in SK-MEL-2 with compound 19,[1],0.76
COc1cccc2c1C(=O)c1c(O)c3c(c(O)c1C2=O)C[C@@](O)(C(=O)CO)C[C@@H]3O[C@H]1C[C@H](N)[C@H](O)[C@H](C)O1 [Doxorubicin],Interaction Type,[1]; [9],Ineffective
COc1cc(C2Oc3cc([C@H]4Oc5cc(O)cc(O)c5C(=O)[C@@H]4O)ccc3OC2CO)ccc1O (some centres unmarked) [Silibinin],CI in SK-MEL-2 with compound 19,[1],0.89
same,Interaction Type,[1]; [9],Moderate
NC(=O)NO [Hydroxyurea],Interaction Type,[1],Ineffective
CC(/C=C/[C@@H]1C[C@]2(CO2)CC(C)(C)O1)=C\C[C@H]1OC[C@@H](NC(=O)/C=C\[C@H](C)OC(=O)N(C)C(C)C)CO1,IC50,[2]; Table III,700 nM
O=c1[nH]cc(F)c(=O)[nH]1 [5-Fluorouracil],Interaction Type,[1]; [9],Ineffective^a
CC(/C=C/[C@@H]1C[C@]2(CO2)CC(C)(C)O1)=C\C[C@H]1CC[C@@H](NC(=O)/C=C\[C@H](C)OC(=O)N(C)CCN(C)C)CC1,IC50,[2]; Table II,170 nM
same,solubility,"[5]; aqueous buffer, read-out: Buffer Soluble",> 10 µM
Cc1ncc(C[n+]2csc(CCO)c2C)c(=O)[nH]1 [Oxythiamine],Interaction Type,[1]; [9],Ineffective
Cn1c(=O)n(-c2ccc(C(C)(C)C#N)cc2)c2c3cc(-c4cnc5ccccc5c4)ccc3ncc21 [BEZ 235],CI in SK-MEL-2 with compound 19,[1],0.21
same,Interaction Type,[1]; [9],Strong
same,drug interaction with compound 19 (panel of 23 drugs),[7],strongest synergy
same,drug interaction with compound 19,[8],strong synergism
same,drug interaction with compound 20,[8],strong synergism
COc1ccc2c(c1)/C(=C/c1cnc[nH]1)C(=O)N2 [SU 9516],CI in SK-MEL-2 with compound 19,[1],0.83
same,Interaction Type,[1]; [9],Antagonism (1.45-3.3)
CC(/C=C/[C@@H]1C[C@]2(CO2)CC(C)(C)O1)=C\C[C@H]1OC[C@@H](NC(=O)/C=C\[C@H](C)OC(=O)N(C)C)CO1,IC50,[2]; Table III,300 nM
CCCCCCCCCCCCNC(=O)NC1CCCCC1 [NCND],Interaction Type,[1]; [9],Slightly
same,cytotoxic effect of drug alone,[7]; single drug in combination assays,Neither AUDA nor NCND alone produced a cytotoxic effect
CC(C)C[C@H](NC(=O)[C@H](Cc1ccccc1)NC(=O)c1cnccn1)B(O)O [Bortezomib],Interaction Type,[1]; [9],Antagonism (1.45-3.3)
CO[C@@]12[C@H](COC(N)=O)C3=C(C(=O)C(C)=C(N)C3=O)N1C[C@@H]1N[C@@H]12 [Mitomycin C],Interaction Type,[1],Ineffective
COc1ccc(C2=N[C@@H](c3ccc(Cl)cc3)[C@@H](c3ccc(Cl)cc3)N2C(=O)N2CCNC(=O)C2)c(OC(C)C)c1 [Nutlin-3],Interaction Type,[1]; [9],Ineffective
CC[C@@]1(O)C(=O)OCc2c1cc1n(c2=O)Cc2cc3ccccc3nc2-1 [Camptothecin],CI in SK-MEL-2 with compound 19,[1],0.74
same,Interaction Type,[1]; [9],Antagonism (1.45-3.3)
